Results published in patent US5968926A, “Antipsychotic method” (Novo Nordisk A/S, priority 1995, dated 1999).
Where a name gives a salt, the structure may show the parent alone.

Test system: conditioned avoidance responding
Assay: Conditioned avoidance behavior in rats
Type: in vivo, rat
Settings: 3.0 mg/kg s.c. 30 min before session, 50 trials
Text: In a conditioned avoidance test, animals learn to respond during a conditioned stimulus in order to avoid mild shock presentation. A response during the conditioned stimulus is termed an avoidance respone, a response during shock is termed an escape response; a response failure is when the animal fails to respond during either the conditioned stimlus or the shock presentation and is indicative of motor impairment. […] Antipsychotic drugs decrease the percentage of avoidance responses without interfering with the ability of the animal to respond since the animals do emit escape responses. The percentage of response failures is considered a measure of motor impairment.
Rats were required to press a response lever in an experimental chamber in order to avoid or escape foot-shock. Each experimental session consisted of 50 trials. During each trial, the chamber was illuminated and a tone presented for a maximum of 10 sec. A response during the tone immediately terminated the tone and the houselight, ending the trial. In the absence of a response during the tone alone, tone+foot-shock (2.0 mA) was presented for a maximum of 10 sec. A response during shock presentation immediately terminated the shock, the tone and the houselight, ending the trial.
For drug screening, a dose of 3.0 mg/kg was administered s.c. 30 min before the start of the experimental session.

Point of comparison: CCCCOc1nsnc1[C@H]1CN2CCC[C@H]1C2 (relative stereo) [Compound 120, Exo-6-(3-butoxy-1,2,5-thiadiazol-4-yl)-1-azabicyclo[3.2.1]octane oxalate], “Conditioned Avoidance % Avoidance Responses” value 27%. Against it:
- CCOc1nsnc1[C@H]1CN2CCC[C@H]1C2 (relative stereo) [Compound 19, Exo-6-(3-ethoxy-1,2,5-thiadiazol-4-yl)-1-azabicyclo[3.2.1]octane oxalate] — higher, 73%
- CCCCSc1nsnc1[C@H]1CN2CCC[C@H]1C2 (relative stereo) [Compound 30, Exo-6-(3-butylthio-1,2,5-thiadiazol-4-yl)-1-azabicyclo[3.2.1]octane oxalate] — higher, 32%
- CCSc1nsnc1[C@H]1CN2CCC[C@H]1C2 (relative stereo) [Compound 32, Exo-6-(3-ethylthio-1,2,5-thiadiazol-4-yl)-1-azabicyclo[3.2.1]octane oxalate] — higher, 46%
- CCCSc1nsnc1[C@H]1CN2CCC[C@H]1C2 (relative stereo) [Compound 58, Exo-6-(3-propylthio-1,2,5-thiadiazol-4-yl)-1-azabicyclo[3.2.1]octane oxalate] — higher, 41%
- CSc1nsnc1[C@H]1CN2CCC[C@H]1C2 (relative stereo) [Compound 74, Exo-6-(3-methylthio-1,2,5-thiadiazol-4-yl)-1-azabicyclo[3.2.1]octane oxalate] — lower, 22%
- N#Cc1ccc(CSc2nsnc2[C@H]2CN3CCC[C@H]2C3)cc1 (relative stereo) [Compound 82, Exo-6-(3-(4-cyanobenzylthio)-1,2,5-thiadiazol-4-yl)-1-azabicyclo[3.2.1]octane oxalate] — lower, 24%
- CCCOc1nsnc1[C@H]1CN2CCC[C@H]1C2 (relative stereo) [Compound 119, Exo-6-(3-propoxy-1,2,5-thiadiazol-4-yl)-1-azabicyclo[3.2.1]octane oxalate] — higher, 29%
- CCCCSc1nsnc1C1CN2CCC1CC2.O=C(O)C(O)C(O)C(=O)O (single isomer, unassigned) [Compound 56, (+) 3-(3-Butylthio-1,2,5-thiadiazol-4-yl)-1-azabicyclo (2.2.2]octane (-) D-tartrate] — lower, 6%
- CCOc1nsnc1C1CN2CCC1CC2.O=C(O)/C=C/C(=O)O (centres unmarked) [Compound 9, 3-(3-Ethoxy-1,2,5-thiadiazol-4-yl)-1-azabicyclo[2.2.2]octane fumarate] — higher, 65%
- CCCCCCOc1nsnc1C1CN2CCC1CC2.O=C(O)/C=C/C(=O)O (centres unmarked) [Compound 11, 3-(3-Hexyloxy-1,2,5-thiadiazol-4-yl)-1-azabicyclo[2.2.2]octane fumarate] — lower, 11%
- CCCCSc1nsnc1C1CN2CCC1CC2.O=C(O)/C=C/C(=O)O (centres unmarked) [Compound 13, 3-(3-Butylthio-1,2,5-thiadiazol-4-yl)-1-azabicyclo[2.2.2]octane fumarate] — lower, 18%
- CCCCOc1nsnc1C1CN2CCC1CC2.O=C(O)C(=O)O (centres unmarked) [Compound 46, 3-(3-Butoxy-1,2,5-thiadiazol-4-yl)-1-azabicyclo[2.2.2]octane oxalate] — higher, 30%
- CCSc1nsnc1C1CN2CCC1CC2.O=C(O)C(=O)O (centres unmarked) [Compound 52, 3-(3-Ethylthio-1,2,5-thiadiazol-4-yl)-1-azabicyclo[2.2.2]octane oxalate] — higher, 63%
- CCCSc1nsnc1C1CN2CCC1CC2.O=C(O)C(=O)O (centres unmarked) [Compound 53, 3-(3-Propylthio-1,2,5-thiadiazol-4-yl)-1-azabicyclo[2.2.2]octane oxalate] — higher, 41%
- O=C(O)/C=C/C(=O)O.c1ccc(OCCSc2nsnc2C2CN3CCC2CC3)cc1 (centres unmarked) [Compound 102, 3-(3-(2-Phenoxyethylthio)-1,2,5-thiadiazol-4-yl)-1-azabicyclo[2.2.2) octane fumarate] — lower, 3%
- N#CCSc1nsnc1C1CN2CCC1CC2.O=C(O)C(=O)O (centres unmarked) [Compound 103, 3-(3-Cyanomethylthio-1,2,5-thiadiazol-4-yl)-1-azabicyclo[2.2.2]octane oxalate] — higher, 51%
- O=C(O)/C=C/C(=O)O.c1csc(CCCSc2nsnc2C2CN3CCC2CC3)c1 (centres unmarked) [Compound 104, 3-(3-(3-(2-Thienyl)propylthio)-1,2,5-thiadiazol-4-yl)-1-azabicyclo[2.2.2]octane fumarate] — lower, 24%
- Cn1nnnc1SCCCCSc1nsnc1C1CN2CCC1CC2 (centres unmarked) [Compound 106, oxalate] — higher, 55%
- Cc1nnc(SCCCCSc2nsnc2C2CN3CCC2CC3)s1 (centres unmarked) [Compound 107, oxalate] — higher, 52%
- CSc1nsnc1C1CN2CCC1CC2.O=C(O)C(=O)O (centres unmarked) [Compound 131, 3-(3-Methylthio-1,2,5-thiadiazol-4-yl)-1-azabicyclo[2.2.2]octane oxalate] — higher, 53%

Same assay, conditions: 3.0 mg/kg s.c. 30 min before session, 50 trials, 3 mg/kg

Point of comparison: CCCCSc1nsnc1C1CN2CCCC1C2 (single isomer, unassigned) [Compound 111, (-)-Exo-6-(3-butylthio-1,2,5-thiadiazol-4-yl)-1-azabicyclo[3.2.1]octane (+) L-tartrate], “Conditioned Avoidance % Avoidance Responses” value 8%. Against it:
- CCCCSc1nsnc1C1CN2CCCC1C2 (single isomer, unassigned) [Compound 112, (+)-Exo-6-(3-butylthio-1,2,5-thiadiazol-4-yl)-1-azabicyclo[3.2.1]octane (-) D-tartrate] — lower, 2%
- CCCSc1nsnc1C1CN2CCCC1C2 (single isomer, unassigned; (+)) [Compound 113, (+)-Exo-6-(3-propylthio-1,2,5-thiadiazol-4-yl)-1-azabicyclo[3.2.1]octane (+) L-tartrate] — higher, 19%
- CCCSc1nsnc1C1CN2CCCC1C2 (single isomer, unassigned; (-)) [Compound 114, (-)-Exo-6-(3-propylthio-1,2,5-thiadiazol-4-yl)-1-azabicyclo[3.2.1]octane (-) D-tartrate] — higher, 39%

Test system: not given
Assay: not given
Settings: blood samples of treated patients, 17 patients, trial terminated; cited from earlier work

For Cc1cc2c(s1)Nc1ccc(F)cc1N=C2N1CCN(C)CC1 [flumezapine, 7-fluoro-2-methyl-10-(4-methyl-1-piperazinyl)-4H-thieno[2,3-b][1,5]-benzodiazepine], the “enzyme levels: creatinine phosphokinase (CPK), SGOT, SGPT” value is listed as “in substantial excess of normal values”.
